The values below come from US20240316022A1 (TYRA BIOSCIENCES, INC., priority 2021, published 2024).

Common to all, as to assay: Kinase binding assay (kinase-tagged T7 phage, qPCR), Kd
(In qPCR the cycle at which signal appears reflects the starting amount.)

The target of one experiment is T1, FGFR3 (Homo sapiens, UniProt P22607).
T1 construct: made in house; host or cells: E. coli derived from BL21, infected with T7 phage
The conditions noted are these: read-out: FGFR3 (Kd nM). How it is done:
(§1) Kinase-tagged T7 phage strains were prepared in an E. coli host derived from the BL21 strain. E. coli were grown to log-phase and infected with T7 phage and incubated with shaking at 32° C. until lysis. The lysates were centrifuged and filtered to remove cell debris. Streptavidin-coated magnetic beads were treated with biotinylated small molecule ligands for 30 minutes at room temperature to generate affinity resins for kinase assays. The liganded beads were blocked with excess biotin and washed with blocking buffer SeaBlock (Pierce), 1% BSA, 0.05% Tween 20, 1 mM DTT to remove unbound ligand and to reduce non-specific binding. Binding reactions were assembled by combining kinases, liganded affinity beads, and test compounds in 1× binding buffer (20% SeaBlock, 0.17×PBS, 0.05% Tween 20, 6 mM DTT).
(§2) Test compounds were prepared as 111X stocks in 100% DMSO. Kds were determined using an 11-point 3-fold compound dilution series with three DMSO control points. All compounds for Kd measurements are distributed by acoustic transfer (non-contact dispensing) in 100% DMSO. The compounds were then diluted directly into the assays such that the final concentration of DMSO was 0.9%. All reactions performed in polypropylene 384-well plate. Each was a final volume of 0.02 ml. The assay plates were incubated at room temperature with shaking for 1 hour and the affinity beads were washed with wash buffer (1×PBS, 0.05% Tween 20). The beads were then re-suspended in elution buffer (1×PBS, 0.05% Tween 20, 0.5 μM non-biotinylated affinity ligand) and incubated at room temperature with shaking for 30 minutes. The kinase concentration in the eluates was measured by qPCR.
(§3) Binding constants were calculated with a standard dose-response curve using the Hill equation: […]
(§4) The Hill Slope was set to −1. Curves were fitted using a non-linear least square fit with the Levenberg-Marquardt algorithm.

The target in a further experiment is T2, FGFR4 (Homo sapiens, UniProt P22455).
T2 construct: made in house; host or cells: E. coli derived from BL21, infected with T7 phage
T2 sequence (P22455 22-802): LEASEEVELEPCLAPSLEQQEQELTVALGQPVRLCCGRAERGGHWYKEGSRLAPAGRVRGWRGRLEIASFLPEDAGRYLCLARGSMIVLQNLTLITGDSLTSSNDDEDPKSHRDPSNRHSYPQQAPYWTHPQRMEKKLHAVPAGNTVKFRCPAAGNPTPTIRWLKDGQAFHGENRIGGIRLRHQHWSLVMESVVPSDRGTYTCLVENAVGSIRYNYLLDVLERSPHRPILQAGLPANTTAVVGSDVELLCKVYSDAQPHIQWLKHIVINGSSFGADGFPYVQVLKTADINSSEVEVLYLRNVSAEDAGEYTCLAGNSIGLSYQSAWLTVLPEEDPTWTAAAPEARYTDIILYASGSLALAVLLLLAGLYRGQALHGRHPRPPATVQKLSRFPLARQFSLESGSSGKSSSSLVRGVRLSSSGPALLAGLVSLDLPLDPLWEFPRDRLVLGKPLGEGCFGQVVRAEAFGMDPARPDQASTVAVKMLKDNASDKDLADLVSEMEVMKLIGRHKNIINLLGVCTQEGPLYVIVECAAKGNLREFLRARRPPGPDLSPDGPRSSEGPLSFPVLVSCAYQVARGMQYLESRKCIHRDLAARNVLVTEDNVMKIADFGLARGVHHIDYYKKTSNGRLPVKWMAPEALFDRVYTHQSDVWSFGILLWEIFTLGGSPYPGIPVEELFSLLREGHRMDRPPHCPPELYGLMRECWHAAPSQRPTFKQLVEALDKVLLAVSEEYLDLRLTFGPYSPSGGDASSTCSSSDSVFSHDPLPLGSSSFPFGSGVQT
The conditions noted are these: read-out: FGFR4 (Kd nM). The method, then: as §1, §2, §3, §4

Another experiment addresses T3, FGFR2 (Homo sapiens, UniProt P21802).
T3 construct: made in house; host or cells: E. coli derived from BL21, infected with T7 phage
The conditions noted are these: read-out: FGFR2 (Kd nM). The method, then:
(§5) Kinase-tagged T7 phage strains were prepared in an E. coli host derived from the BL21 strain. E. coli were grown to log-phase and infected with T7 phage and incubated with shaking at 32° C. until lysis. The lysates were centrifuged and filtered to remove cell debris. […] The liganded beads were blocked with excess biotin and washed with blocking buffer SeaBlock (Pierce), 1% BSA, 0.05% Tween 20, 1 mM DTT to remove unbound ligand and to reduce non-specific binding.
(§6) Kds were determined using an 11-point 3-fold compound dilution series with three DMSO control points. […] The compounds were then diluted directly into the assays such that the final concentration of DMSO was 0.9%. All reactions performed in polypropylene 384-well plate. Each was a final volume of 0.02 ml. […] The kinase concentration in the eluates was measured by qPCR.
as §3, §4

Another experiment addresses T4, FGFR1 (Homo sapiens, UniProt P11362).
T4 construct: made in house; host or cells: E. coli derived from BL21, infected with T7 phage
The conditions noted are these: read-out: FGFR1 (Kd nM). The method, then: as §5, §6, §3, §4

T1 sequence (P22607 23-806): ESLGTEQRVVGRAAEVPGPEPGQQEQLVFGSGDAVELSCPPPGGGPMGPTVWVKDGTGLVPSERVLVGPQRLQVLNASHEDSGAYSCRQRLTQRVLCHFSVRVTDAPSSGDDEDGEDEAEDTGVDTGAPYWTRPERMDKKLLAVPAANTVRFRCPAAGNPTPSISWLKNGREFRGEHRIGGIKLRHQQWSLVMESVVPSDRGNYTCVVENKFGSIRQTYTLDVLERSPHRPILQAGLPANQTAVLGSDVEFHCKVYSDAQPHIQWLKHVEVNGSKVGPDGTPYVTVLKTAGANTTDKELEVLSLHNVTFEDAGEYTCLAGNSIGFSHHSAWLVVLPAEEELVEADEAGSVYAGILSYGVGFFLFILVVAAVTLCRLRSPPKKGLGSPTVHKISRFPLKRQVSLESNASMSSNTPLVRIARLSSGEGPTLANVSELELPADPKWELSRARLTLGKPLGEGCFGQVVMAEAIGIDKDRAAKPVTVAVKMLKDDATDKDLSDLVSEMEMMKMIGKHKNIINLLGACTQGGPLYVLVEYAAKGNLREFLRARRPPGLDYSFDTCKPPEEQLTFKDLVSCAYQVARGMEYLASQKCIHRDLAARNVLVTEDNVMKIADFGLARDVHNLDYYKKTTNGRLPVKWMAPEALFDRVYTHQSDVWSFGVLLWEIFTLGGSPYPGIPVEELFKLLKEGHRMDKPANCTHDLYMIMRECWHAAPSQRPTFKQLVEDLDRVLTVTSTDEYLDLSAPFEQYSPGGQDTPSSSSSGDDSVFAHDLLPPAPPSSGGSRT
T4 sequence (P11362 22-822): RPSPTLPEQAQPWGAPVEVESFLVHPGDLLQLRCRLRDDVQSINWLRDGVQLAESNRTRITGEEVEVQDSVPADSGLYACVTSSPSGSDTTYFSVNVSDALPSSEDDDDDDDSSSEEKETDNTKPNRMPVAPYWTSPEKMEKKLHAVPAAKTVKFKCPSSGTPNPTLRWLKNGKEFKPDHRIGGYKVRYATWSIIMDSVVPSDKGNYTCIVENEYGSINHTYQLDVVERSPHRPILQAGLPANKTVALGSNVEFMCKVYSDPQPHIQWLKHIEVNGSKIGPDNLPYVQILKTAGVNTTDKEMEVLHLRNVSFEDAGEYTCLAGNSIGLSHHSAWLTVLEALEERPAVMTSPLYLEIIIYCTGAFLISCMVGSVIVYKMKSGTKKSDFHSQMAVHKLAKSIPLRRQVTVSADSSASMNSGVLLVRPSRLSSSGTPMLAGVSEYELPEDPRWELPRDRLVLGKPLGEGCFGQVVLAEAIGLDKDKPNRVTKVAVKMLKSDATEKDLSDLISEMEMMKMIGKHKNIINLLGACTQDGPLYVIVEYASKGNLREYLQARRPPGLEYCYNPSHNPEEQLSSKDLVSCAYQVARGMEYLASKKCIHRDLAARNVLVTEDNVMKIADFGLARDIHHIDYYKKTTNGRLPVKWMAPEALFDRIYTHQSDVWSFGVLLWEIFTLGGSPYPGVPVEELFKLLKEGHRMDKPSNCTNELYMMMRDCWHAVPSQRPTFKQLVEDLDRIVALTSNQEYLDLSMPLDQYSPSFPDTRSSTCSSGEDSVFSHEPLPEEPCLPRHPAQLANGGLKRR
T3 sequence (P21802 22-821): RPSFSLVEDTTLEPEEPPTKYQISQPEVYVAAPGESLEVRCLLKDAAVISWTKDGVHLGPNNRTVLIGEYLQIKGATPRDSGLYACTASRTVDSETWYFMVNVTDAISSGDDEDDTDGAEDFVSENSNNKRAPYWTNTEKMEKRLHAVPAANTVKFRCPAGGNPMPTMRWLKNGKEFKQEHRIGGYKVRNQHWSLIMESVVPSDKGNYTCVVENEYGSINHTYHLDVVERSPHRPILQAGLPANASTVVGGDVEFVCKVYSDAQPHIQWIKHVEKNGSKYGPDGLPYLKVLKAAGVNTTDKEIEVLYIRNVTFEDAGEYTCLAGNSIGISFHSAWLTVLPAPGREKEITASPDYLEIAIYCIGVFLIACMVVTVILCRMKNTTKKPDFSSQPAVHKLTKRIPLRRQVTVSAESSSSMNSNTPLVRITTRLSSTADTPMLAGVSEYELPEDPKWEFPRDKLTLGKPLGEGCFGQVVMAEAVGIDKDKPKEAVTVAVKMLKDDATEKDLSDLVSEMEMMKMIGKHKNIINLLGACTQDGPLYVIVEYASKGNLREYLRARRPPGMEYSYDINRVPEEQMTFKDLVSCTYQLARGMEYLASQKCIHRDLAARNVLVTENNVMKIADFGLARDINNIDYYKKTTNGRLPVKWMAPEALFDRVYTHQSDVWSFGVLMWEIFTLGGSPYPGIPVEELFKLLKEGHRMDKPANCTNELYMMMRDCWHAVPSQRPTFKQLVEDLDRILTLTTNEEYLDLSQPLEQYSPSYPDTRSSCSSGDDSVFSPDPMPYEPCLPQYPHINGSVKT

Regarding `Cc1cc2[nH]nc(-c3cnc(O[C@@H]4CCOC4)c(C#N)c3)c2cc1O[C@H](C)c1c(Cl)cncc1Cl` [Example 135, 5-(5-((R)-1-(3,5-dichloropyridin-4-yl)ethoxy)-6-methyl-1H-indazol-3-yl)-2-(((R)-tetrahydrofuran-3-yl)oxy)nicotinonitrile], the Kd at FGFR3, at FGFR4, on FGFR2 and at FGFR1 was 0.1 to 100 nM each time.
As to `Cc1cnnc(C)c1[C@@H](C)Oc1ccc2[nH]nc(-c3cc(C#N)cc(OC4CCOC4)c3)c2c1` (stereo partly drawn) [Example 67, 3-[5-[(1R)-1-(3,5-dimethylpyridazin-4-yl)ethoxy]-1H-indazol-3-yl]-5-tetrahydrofuran-3-yloxy-benzonitrile], the equilibrium dissociation constant (Kd) at FGFR3 lay in the range of 100 to 250 nM; at FGFR4, 0.1 to 100 nM; at FGFR2 it was 250 to 1000 nM; at FGFR1 it was 100 to 250 nM.
For the compound `Cc1cnnc(C)c1[C@@H](C)Oc1ccc2[nH]nc(-c3cnc(N(C)C)c(C#N)c3)c2c1` [Example 89, (R)-2-(dimethylamino)-5-(5-(1-(3,5-dimethylpyridazin-4-yl)ethoxy)-1H-indazol-3-yl)nicotinonitrile], the Kd fell in the range of 0.1 to 100 nM on FGFR3, 0.1 to 100 nM at FGFR4, 100 to 250 nM at FGFR2 and 100 to 250 nM at FGFR1.
In the case of `Cc1cnnc(C)c1[C@H](C)Oc1ccc2[nH]nc(-c3cc(C#N)cc(N4CC5(CN(C)C5)C4)c3)c2c1` [Example 91, (S)-3-(5-(1-(3,5-dimethylpyridazin-4-yl)ethoxy)-1H-indazol-3-yl)-5-(6-methyl-2,6-diazaspiro[3.3]heptan-2-yl)benzonitrile], the Kd at FGFR3, on FGFR4, on FGFR2 and at FGFR1 was over 1000 nM each time.
Consider `COc1cc(-c2n[nH]c3ccc(O[C@H](C)c4c(C)cnnc4C)cc23)cc2c1OC1(CCN(C(C)C)CC1)OC2` [Example 125, (R)-6-(5-(1-(3,5-dimethylpyridazin-4-yl)ethoxy)-1H-indazol-3-yl)-1′-isopropyl-8-methoxy-4H-spiro[benzo[d][1,3]dioxine-2,4′-piperidine]], for which the Kd at FGFR3, on FGFR4, at FGFR2 and at FGFR1 was 0.1 to 100 nM throughout.
For `CCS(=O)(=O)N1CCOc2ncc(-c3n[nH]c4ccc(O[C@H](C)c5c(Cl)cncc5Cl)cc34)cc21` [Example 144], the Kd at FGFR3 was over 1000 nM; on FGFR4, 0.1 to 100 nM; on FGFR2, over 1000 nM; at FGFR1 it was over 1000 nM.
Regarding `Cc1cnnc(C)c1[C@@H](C)Oc1ccc2[nH]nc(-c3cc(C#N)cc(OC(F)(F)F)c3)c2c1` [Example 61, 3-[5-[(1R)-1-(3,5-dimethylpyridazin-4-yl)ethoxy]-1H-indazol-3-yl]-5-(trifluoromethoxy)-benzonitrile], the Kd at FGFR3 is over 1000 nM; on FGFR4 it was 250 to 1000 nM; on FGFR2, over 1000 nM; at FGFR1 it was over 1000 nM.
Turning to `Cc1cnnc(C)c1[C@@H](C)Oc1ccc2[nH]nc(-c3cnc(O[C@H]4CCOC4)c(C#N)c3)c2c1` [Example 127, 5-(5-((R)-1-(3,5-dimethylpyridazin-4-yl)ethoxy)-1H-indazol-3-yl)-2-(((S)-tetrahydrofuran-3-yl)oxy)nicotinonitrile], the equilibrium dissociation constant (Kd) at FGFR3 fell in the range of 0.1 to 100 nM; on FGFR4, 0.1 to 100 nM; on FGFR2, 0.1 to 100 nM; at FGFR1, 100 to 250 nM.
Consider `CCOCCOc1cc(C#N)cc(-c2n[nH]c3ccc(O[C@H](C)c4c(C)cnnc4C)cc23)c1` [Example 73, 3-[5-[(1R)-1-(3,5-dimethylpyridazin-4-yl)ethoxy]-1H-indazol-3-yl]-5-(2-ethoxyethoxy)-benzonitrile], for which the dissociation constant (Kd) on FGFR3 was 100 to 250 nM; on FGFR4, 0.1 to 100 nM; on FGFR2, 250 to 1000 nM; at FGFR1, over 1000 nM.
With `COc1ncc(-c2n[nH]c3ccc(O[C@H](C)c4c(Cl)cncc4Cl)cc23)cc1N` [Example 1, 5-[5-[(1R)-1-(3,5-dichloro-4-pyridyl)ethoxy]-1H-indazol-3-yl]-2-methoxy-pyridin-3-amine], the Kd fell in the range of 0.1 to 100 nM on FGFR3, 0.1 to 100 nM on FGFR4, 100 to 250 nM at FGFR2 and 100 to 250 nM at FGFR1.
As for `CCN1CCC2(CC1)CC(=O)c1cc(-c3n[nH]c4ccc(O[C@H](C)c5c(C)cnnc5C)cc34)ccc1O2` [Example 99, (R)-6-(5-(1-(3,5-dimethylpyridazin-4-yl)ethoxy)-1H-indazol-3-yl)-1′-ethylspiro[chroman-2,4′-piperidin]-4-one], the Kd at FGFR3, on FGFR4, at FGFR2 and at FGFR1 was 0.1 to 100 nM each time.
As for `COc1c(C#N)cc(-c2n[nH]c3ccc(O[C@H](C)c4c(C)cnnc4C)cc23)cc1C#N` [Example 85, 5-[5-[(1R)-1-(3,5-dimethylpyridazin-4-yl)ethoxy]-1H-indazol-3-yl]-2-methoxy-benzene-1,3-dicarbonitrile], the equilibrium dissociation constant (Kd) is 250 to 1000 nM at FGFR3, 0.1 to 100 nM on FGFR4, over 1000 nM on FGFR2 and over 1000 nM at FGFR1.
For the compound `Cc1cnnc(C)c1[C@@H](C)Oc1ccc2[nH]nc(-c3cc(C#N)cc(N4CCN(C)CC4)c3)c2c1` [Example 62, 3-[5-[(1R)-1-(3,5-dimethylpyridazin-4-yl)ethoxy]-1H-indazol-3-yl]-5-(4-methylpiperazin-1-yl)benzonitrile], the Kd on FGFR3 was over 1000 nM; at FGFR4, 100 to 250 nM; on FGFR2 it was over 1000 nM; at FGFR1, over 1000 nM.
As for `COc1cc(OC(C)C)cc(-c2n[nH]c3ccc(O[C@H](C)c4c(C)cnnc4C)cc23)c1` [Example 60, 5-[(1R)-1-(3,5-dimethylpyridazin-4-yl)ethoxy]-3-(3-isopropoxy-5-methoxy-phenyl)-1H-indazole], the dissociation constant (Kd) at FGFR3, on FGFR4, on FGFR2 and on FGFR1 was over 1000 nM throughout.
`COc1cc2[nH]nc(-c3cc(C#N)cc(C4CC4)c3)c2cc1O[C@H](C)c1c(C)cnnc1C` [Example 117, (R)-3-cyclopropyl-5-(5-(1-(3,5-dimethylpyridazin-4-yl)ethoxy)-6-methoxy-1H-indazol-3-yl)benzonitrile]: the dissociation constant (Kd) on FGFR3 was in the range of 100 to 250 nM; at FGFR4, 0.1 to 100 nM; on FGFR2 it was 250 to 1000 nM; on FGFR1, 100 to 250 nM.
In the case of `C[C@@H](Oc1ccc2[nH]nc(-c3cnc4c(c3)N(CCN(C)C)CCO4)c2c1)c1c(Cl)cncc1Cl` [Example 51, 2-[7-[5-[(1R)-1-(3,5-dichloro-4-pyridyl)ethoxy]-1H-indazol-3-yl]-2,3-dihydro-pyrido[2,3-b][1,4]oxazin-1-yl]-N,N-dimethyl-ethanamine], the Kd at FGFR3 is 250 to 1000 nM; on FGFR4, 100 to 250 nM; on FGFR2 it was over 1000 nM; on FGFR1, over 1000 nM.
As for `Cc1cc(-c2n[nH]c3ccc(O[C@H](C)c4c(C)cnnc4C)cc23)cc(C#N)c1OC1CCN(C2COC2)CC1` [Example 113, (R)-5-(5-(1-(3,5-dimethylpyridazin-4-yl)ethoxy)-1H-indazol-3-yl)-3-methyl-2-((1-(oxetan-3-yl)piperidin-4-yl)oxy)benzonitrile], the Kd at FGFR3, at FGFR4, on FGFR2 and on FGFR1 was 0.1 to 100 nM in each case.

As usually defined, the Kd is the constant that tells how readily two partners part at equilibrium.
